Test results: PubChem BioAssay AID328 (DTP/NCI, 2004)
Where “and” joins values, the source holds several entries; their conditions need not be identical. Identical values can stand only once. Toxic doses and inconclusive results are not listed. How the source made its calls: active means survival T/C of 150% or more; inactive means T/C below 125% in these data.

Tested on: BDF1 mice, P388 leukemia ip, median survival T/C
Assay: NCI In Vivo Anticancer Drug Screen. Data for tumor model P388 Leukemia (intraperitoneal) in B6D2F1 (BDF1) mice
Conditions: endpoint: median survival time, higher = longer survival
Method in brief: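 Antitumour effect was judged in vivo: survival in drug-treated mice, normalised to that of vehicle-dosed controls, gives the reported T/C.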

[1] = dose: 6.25 mg/kg/injection, schedule: Q01DX005 (ip), vehicle: Klucel (hydroxypropylcellulose) (HPC)
[2] = dose: 25.0 mg/kg/injection, schedule: Q01DX009 (ip), vehicle: saline
[3] = dose: 50.0 mg/kg/injection, schedule: Q01DX005 (ip), vehicle: Klucel (hydroxypropylcellulose) (HPC)
[4] = dose: 50.0 mg/kg/injection, schedule: Q01DX009 (ip), vehicle: saline
[5] = dose: 200.0 mg/kg/injection, schedule: Q04DX003 (ip), vehicle: saline
[6] = dose: 400.0 mg/kg/injection, schedule: Q01DX009 (ip), vehicle: saline
[7] = dose: 400.0 mg/kg/injection, schedule: Q04DX003 (ip), vehicle: saline
[8] = dose: 50.0 mg/kg/injection, schedule: Q04DX003 (ip), vehicle: saline with Tween-80
[9] = dose: 100.0 mg/kg/injection, schedule: Q04DX003 (ip), vehicle: saline with Tween-80
[10] = dose: 100.0 mg/kg/injection, schedule: Q01DX009 (ip), vehicle: saline
[11] = dose: 100.0 mg/kg/injection, schedule: Q04DX003 (ip), vehicle: saline
[12] = dose: 50.0 mg/kg/injection, schedule: Q01DX009 (ip), vehicle: saline with Tween-80
[13] = dose: 100.0 mg/kg/injection, schedule: Q01DX009 (ip), vehicle: saline with Tween-80
[14] = dose: 200.0 mg/kg/injection, schedule: Q01DX009 (ip), vehicle: saline with Tween-80
[15] = dose: 200.0 mg/kg/injection, schedule: Q04DX003 (ip), vehicle: saline with Tween-80
[16] = dose: 400.0 mg/kg/injection, schedule: Q04DX003 (ip), vehicle: saline with Tween-80
[17] = dose: 100.0 mg/kg/injection, schedule: Q01DX009 (ip), vehicle: Klucel (hydroxypropylcellulose) (HPC)
[18] = dose: 200.0 mg/kg/injection, schedule: Q01DX009 (ip), vehicle: Klucel (hydroxypropylcellulose) (HPC)
[19] = dose: 25.0 mg/kg/injection, schedule: Q01DX009 (ip), vehicle: saline with Tween-80

Measured: T/C

Cn1cnc([N+](=O)[O-])c1Sc1nc(N)nc2c1ncn2C1CC(O)C(CO)O1 (centres undefined)
active: [1] 155 % of control | dose: 6.25 mg/kg/injection, schedule: Q01DX009 (ip), vehicle: saline 161 % of control
inactive: [2] 114 % of control and 95 % of control | [3] 86 % of control | [4] 107 % of control | dose: 150.0 mg/kg/injection, schedule: Q01DX009 (ip), vehicle: saline 107 % of control | dose: 200.0 mg/kg/injection, schedule: Q01DX009 (ip), vehicle: saline 109 % of control and 110 % of control | [5] 118 % of control | [6] 91 % of control and 116 % of control | [7] 113 % of control

O=C(NOCc1cc2c(cc1Cl)OCO2)c1ccc(S(=O)(=O)F)cc1
inactive: dose: 100.0 mg/kg/injection, schedule: Q01DX001 (ip), vehicle: saline sonified 104 % of control | dose: 200.0 mg/kg/injection, schedule: Q01DX001 (ip), vehicle: saline sonified 86 % of control | dose: 400.0 mg/kg/injection, schedule: Q01DX001 (ip), vehicle: saline sonified 86 % of control

O=C(O)c1cc(N=Nc2ccccc2)ccc1O
inactive: [8] 104 % of control | [9] 100 % of control

CN=C(NCCCOC)c1ccc(NC(=O)Nc2ccc(NC(=O)Nc3ccc(C(=NC)NCCCOC)cc3)cc2)cc1
inactive: [1] 104 % of control | dose: 12.5 mg/kg/injection, schedule: Q01DX005 (ip), vehicle: Klucel (hydroxypropylcellulose) (HPC) 108 % of control | dose: 25.0 mg/kg/injection, schedule: Q01DX005 (ip), vehicle: Klucel (hydroxypropylcellulose) (HPC) 115 % of control | [3] 121 % of control | dose: 100.0 mg/kg/injection, schedule: Q01DX005 (ip), vehicle: Klucel (hydroxypropylcellulose) (HPC) 107 % of control

CCN(CC)CCOc1cc(C)ccc1C
inactive: [2] 103 % of control | dose: 25.0 mg/kg/injection, schedule: Q04DX003 (ip), vehicle: saline 109 % of control | [4] 92 % of control | dose: 50.0 mg/kg/injection, schedule: Q04DX003 (ip), vehicle: saline 100 % of control | [10] 89 % of control | [11] 90 % of control

C=C1C(=O)O[C@@H]2/C=C(/C)[C@@]3(O)C=C[C@](C)(C[C@@H](OC(=O)/C(=C\C)COC(C)=O)[C@@H]12)O3
inactive: dose: 0.38 mg/kg/injection, schedule: Q01DX010 (ip), vehicle: carboxymethylcellulose (CMC) 90 % of control | dose: 0.75 mg/kg/injection, schedule: Q01DX010 (ip), vehicle: carboxymethylcellulose (CMC) 95 % of control | dose: 1.0 mg/kg/injection, schedule: Q01DX009 (ip), vehicle: carboxymethylcellulose (CMC) 103 % of control | dose: 1.5 mg/kg/injection, schedule: Q01DX010 (ip), vehicle: carboxymethylcellulose (CMC) 109 % of control | dose: 2.5 mg/kg/injection, schedule: Q01DX010 (ip), vehicle: saline 118 % of control | dose: 3.0 mg/kg/injection, schedule: Q01DX010 (ip), vehicle: carboxymethylcellulose (CMC) 104 % of control | dose: 5.0 mg/kg/injection, schedule: Q01DX010 (ip), vehicle: saline 122 % of control | dose: 8.0 mg/kg/injection, schedule: Q01DX009 (ip), vehicle: carboxymethylcellulose (CMC) 117 % of control | dose: 12.0 mg/kg/injection, schedule: Q01DX010 (ip), vehicle: carboxymethylcellulose (CMC) 118 % of control | dose: 18.0 mg/kg/injection, schedule: Q01DX010 (ip), vehicle: saline 109 % of control | dose: 27.0 mg/kg/injection, schedule: Q01DX010 (ip), vehicle: carboxymethylcellulose (CMC) 105 % of control | dose: 40.0 mg/kg/injection, schedule: Q01DX010 (ip), vehicle: saline 100 % of control
active: dose: 5.0 mg/kg/injection, schedule: Q01DX010 (ip), vehicle: carboxymethylcellulose (CMC) 157 % of control | dose: 6.0 mg/kg/injection, schedule: Q01DX010 (ip), vehicle: carboxymethylcellulose (CMC) 163 % of control | dose: 8.0 mg/kg/injection, schedule: Q01DX010 (ip), vehicle: carboxymethylcellulose (CMC) 157 % of control

CC(=O)Oc1c(Br)cc(Br)cc1-c1ccccc1
inactive: [12] 92 % of control | [13] 92 % of control | [14] 92 % of control | dose: 400.0 mg/kg/injection, schedule: Q01DX009 (ip), vehicle: saline with Tween-80 90 % of control

CCC(=O)N(C)[C@@H](C)C(=O)O[C@H]1CC(=O)N(C)c2cc(cc(OC)c2Cl)C/C(C)=C/C=C[C@@H](OC)[C@@]2(O)C[C@H](OC(=O)N2)[C@@H](C)[C@@H]2O[C@@]12C
inactive: dose: 0.2 micrograms/kg/injection, schedule: Q01DX009 (ip), vehicle: saline 120 % of control | dose: 12.5 micrograms/kg/injection, schedule: Q01DX009 (ip), vehicle: saline 104 % of control
active: dose: 1.6 micrograms/kg/injection, schedule: Q01DX009 (ip), vehicle: saline 154 % of control | dose: 3.1 micrograms/kg/injection, schedule: Q01DX009 (ip), vehicle: saline 150 % of control

CC(=O)N(C(C)=O)c1ccc(N=Nc2ccccc2C)cc1C
inactive: [12] 90 % of control | [13] 90 % of control | [9] 95 % of control | [14] 86 % of control | [15] 100 % of control | [16] 100 % of control

CCCCNC(C)(C)C(SSS(=O)(=O)O)c1ccc(Cl)cc1 (centres undefined)
inactive: [9] 100 % of control | [15] 100 % of control | [16] 116 % of control

Cc1ccc(NC(=O)N(CCCCl)N=O)cc1
inactive: dose: 25.0 mg/kg/injection, schedule: Q01DX009 (ip), vehicle: Klucel (hydroxypropylcellulose) (HPC) 105 % of control | dose: 50.0 mg/kg/injection, schedule: Q01DX009 (ip), vehicle: Klucel (hydroxypropylcellulose) (HPC) 119 % of control | [17] 111 % of control | [18] 95 % of control

N#C/C(=C\C=C\c1ccccc1)C(N)=O
inactive: [12] 110 % of control | [13] 120 % of control | [14] 120 % of control

O=c1[nH]n(-c2ccccc2)c(=O)cc1Cl
inactive: [12] 95 % of control | [13] 87 % of control | [14] 90 % of control

C/C(CCCCl)=N/NC(N)=S
inactive: dose: 75.0 mg/kg/injection, schedule: Q01DX009 (ip), vehicle: saline 86 % of control | dose: 115.0 mg/kg/injection, schedule: Q01DX009 (ip), vehicle: saline 86 % of control

Nc1ccc(N=Nc2ccccc2)c(N)c1
inactive: [19] 88 % of control | [12] 99 % of control | [17] 91 % of control | [13] 113 % of control | [10] 120 % of control | [11] 86 % of control | [18] 100 % of control | [14] 115 % of control | [5] 100 % of control | [6] 115 % of control | [7] 104 % of control

c1ccc(CNCCN(Cc2ccccc2)Cc2ccccc2)cc1
inactive: dose: 0.78 mg/kg/injection, schedule: Q01DX009 (ip), vehicle: water 105 % of control | dose: 1.56 mg/kg/injection, schedule: Q01DX009 (ip), vehicle: water 106 % of control | dose: 3.12 mg/kg/injection, schedule: Q01DX009 (ip), vehicle: water 99 % of control and 101 % of control | dose: 6.25 mg/kg/injection, schedule: Q01DX009 (ip), vehicle: water 93 % of control and 110 % of control | dose: 12.5 mg/kg/injection, schedule: Q01DX009 (ip), vehicle: water 110 % of control and 115 % of control | dose: 25.0 mg/kg/injection, schedule: Q01DX009 (ip), vehicle: water 101 % of control

CC1(c2cccs2)C(=O)NC(=O)N1C(=O)CCl (centres undefined)
inactive: dose: 12.5 mg/kg/injection, schedule: Q01DX009 (ip), vehicle: saline with Tween-80 101 % of control | [19] 88 % of control | [12] 105 % of control | [8] 104 % of control | dose: 75.0 mg/kg/injection, schedule: Q01DX009 (ip), vehicle: saline with Tween-80 90 % of control | [13] 106 % of control | [9] 94 % of control | dose: 150.0 mg/kg/injection, schedule: Q01DX009 (ip), vehicle: saline with Tween-80 105 % of control | [15] 97 % of control

CCN(CC)C(=O)c1cccc(COc2ccc(N3C(N)=NC(N)=NC3(C)C)cc2Cl)c1
inactive: dose: 16.5 mg/kg/injection, schedule: Q01DX009 (ip), vehicle: saline 110 % of control | [2] 120 % of control | dose: 37.5 mg/kg/injection, schedule: Q01DX009 (ip), vehicle: saline 120 % of control
